melting point [°C] | Compound
184 to 186 | CN1CCN(C2=Nc3cc(Cl)cc4ccn(c34)-c3ccccc32)CC1
214 to 216 | O=C(Nc1ccccc1)c1ccc(Cn2cnc3ccccc32)cc1
175 to 176 | C=CCC1(C(=O)OC)C(=O)Nc2ccccc2CC1c1ccc(OC)cc1 (configuration not stated)
184 to 185 | CO[C@@H](Cc1ccc(OCCc2nc(-c3cc(C)cc(C)c3)oc2C)c2ccsc12)C(=O)O
59 | COc1ccc(Cn2c(=O)n(C3CCCCC3)c3cc(Cl)ccc32)cc1OC
161 to 165 | CC1CCC(N(CC2CCC(CN(C(=O)Nc3ccc(N4CCCCC4)cc3)C3CCC(C)CC3)CC2)C(=O)Nc2ccc(N3CCCCC3)cc2)CC1 (configuration not stated)
206 to 208 | CC1(C)C(=O)Nc2ccc(-c3ccc(F)c(Cl)c3)cc21
181 to 183 | COc1nc(C)nc(NC(=O)NS(=O)(=O)c2c(Cl)cccc2C(C)F)n1 (configuration not stated)
120 | CNC(=O)NS(=O)(=O)c1cc(CCNC(=O)/C=C/c2cccs2)ccc1OC
171 to 173 | Cc1cc(N2C=CC(O)CC2)nn2cnnc12 (configuration not stated)
83 to 84 | Clc1ccc(C=NC(c2ccccc2)c2ccccc2)cc1
204 to 206 | CSC(=S)N/N=C/c1ccc(-c2ncn(-c3ccc(OC(F)(F)F)cc3)n2)cc1
192 to 194 | N#C/C=C/c1coc2ccccc2c1=O
156 to 158 | C1=C(c2cccs2)CCC(N2CCN(c3ccccn3)CC2)C1 (configuration not stated)
182 to 185 | Cc1ccc(N2N=C(C(N)=O)NC2c2c(F)cccc2F)cc1COCC(F)(F)C(F)(F)F (configuration not stated)
156 | CCCCC(=O)Cc1ccc(C(=O)Nc2ccc3cc(CN4CCCC4)cnc3c2C)cc1
83 to 87 | COc1ccccc1Cn1c(=O)c2c(Cl)cc(N3CCNCC3)cc2n(Cc2ccccc2)c1=O
137 to 139 | COC(=O)CCC(C)C1CCC2C3C(C(C)=O)CC4CC(C(C)=O)CCC4(C)C3C=CC12C (configuration not stated)
170 to 171 | COc1cc(COc2nn(C)cc2C(C)=O)ccc1OCc1nc(-c2ccccc2)oc1C
88 to 90 | Cc1ccc(S(=O)(=O)OCC2Cc3cccc(-c4cccc(F)c4)c3O2)cc1 (configuration not stated)
103 to 104 | Cc1ccc(S(=O)(=O)N(C)c2ccc([N+](=O)[O-])cc2C)cc1
169 to 170 | CCc1cc(=O)c(C(=O)c2ccccc2)c(C)[nH]1
120 | COc1ccc(S(=O)(=O)N2c3ccc(Cl)cc3C(O)(c3ccccc3Cl)C2C(=O)N2CCN(C)CC2)cc1OC (configuration not stated)
225 to 227 | COc1ccc(C(=O)Nc2ccccc2)cc1NC(=NC#N)Nc1cc(Cl)cc(Cl)c1

melting point [°C] | Compound
93 to 95 | COc1nc(N2CC(O)C2)c(Cl)nc1NS(=O)(=O)c1cccc(Cl)c1Cl
202 to 204 | NC(=O)NN=Cc1ccc(Oc2ccc3c(c2)CCCC3)cc1
214 to 216 | Nc1nc(N)c2cc(Cc3ccc(F)cc3)ccc2n1
> 300 | O=C(O)c1ccc2c(c1)C(=O)CC(c1ccccc1)=N2
134 to 135 | COc1cc(C(=O)CCC(=O)c2cc(OC)c(OC)c(OC)c2)cc(I)c1OCc1ccccc1
97.5 to 98.3 | CCCCCS(=O)(=O)NC(=O)/C=C/c1ccc(OCCOC)cc1OCC1CCCCC1
159 to 161 | OCc1n[nH]c(-c2ccc(CN3CCCCCC3)s2)n1
92 to 105 | C=CCNc1cc(C)nc2c(-c3ccccc3)n[nH]c12
108 | N#CCCN1CCC2C(C1)c1ccccc1N2c1ccccc1 (configuration not stated)
169 | CCOC=Nn1c(NC)n[nH]c1=O
234 to 238 | CC1(C)CC(NC(=O)NC23CC4CC(CC(C4)C2)C3)CC(C)(C)C1=O
163 to 165 | CCOC(=O)Cn1c2ccccc2c2sccc(=O)c21
114 to 116 | CS(=O)(=O)c1ccc(Oc2ccc(OCC#N)cc2)cc1
232 to 236 | O=C(Cn1c(-c2ccc(Cl)cc2)nc2cccnc21)Nc1ccccc1Cl
165 to 168 | CC(=O)OCCN1C(=O)C(NC(=O)Nc2cccc(-c3nnn[nH]3)c2)N=C(C2CCCCC2)c2cccc(C)c21 (configuration not stated)
158 to 160 | Cc1nc(N2CCC(Cc3ccc(OC(F)(F)F)cc3)C2=O)sc1C(=O)NCc1cccnc1 (configuration not stated)
80 to 81 | CN(Cc1cnn(C)c1)c1ccc(Br)cc1C=O
199 to 200 | O=C(Nc1n[nH]c(=S)s1)NC(CC1CCCCC1)C(=O)NCCc1ccccc1 (configuration not stated)
66 to 67 | CCOC(=O)CC(=O)c1ccnc(F)c1
286 to 288 | O=S(=O)(Nc1ccc(-c2n[nH]c3c2Cc2ccccc2-3)cc1)c1ccccc1
278 | CC(=Cc1cc(-n2[nH]c3c(c2=O)CCCC3)ccc1Cl)C(=O)O
135 to 136 | Cc1ccc(N2CCOCC2)c(N=C2NCCN2CCO)c1
211 to 212 | COc1ccnc(CCc2nc3cc(-c4ccc(S(=O)(=O)N(C)C)c(F)c4)cnc3[nH]2)c1
297 | Cc1sc(S(N)(=O)=O)cc1NC(=O)c1cnn2c(C(F)(F)F)cc(-c3ccc(C(F)(F)F)cc3)nc12

melting point [°C] | Compound
192 to 201 | Cc1cc(C)c(Nc2nc(C)ccc2S(=O)(=O)c2ccc(OCc3cc(Cl)nc(Cl)c3)cc2)c(C)c1
94 to 96 | Cc1cc(C)cc(C(=O)N2CCN(C(=O)CNC3CCN(C(=O)c4ccccc4)CC3)C(c3ccc(Cl)c(Cl)c3)C2)c1 (racemic)
> 250 | CNCC1Cc2cccc(-c3c(C)cccc3C)c2O1 (configuration not stated)
204 to 206 | CCCNC(=O)Cc1c(-c2ccc(C)s2)nc2sc3ccccc3n12
125 to 145 | CC(C)(C)OC(=O)NC(Cc1ccccc1)C(O)CNCC(O)C(Cc1cccc(OCc2ccccc2)c1)NC(=O)OC(C)(C)C (configuration not stated)
228 to 229 | NCc1cccc(-c2csc(N=C(N)N)n2)n1
266 to 268 | Nc1nc2ccccc2n[n+]1[O-]
188 | C=C1C=Cc2cc(C(=O)O)ccc2OC1
238 | CC1Sc2c(C(=O)O)c(=O)c3cc(F)c(N4CCN(C)CC4)c(F)c3n21 (configuration not stated)
45 to 47 | OCc1coc(Cc2ccc(F)cc2)c1
113 | COC(=O)COc1cc(C)c(SCc2sc(-c3ccc(C(F)(F)F)cc3)nc2C)c(C)c1
298 to 301 | O=[N+]([O-])c1ccc2c(c1)S(=O)(=O)N=C(NC1CCC1)N2
143 to 145 | CN(C)c1ccc(C(=O)C#Cc2ccncc2)cc1
107 to 108 | O=C1CC(c2ccccc2)Cc2occ(C(F)(F)F)c21 (configuration not stated)
164 to 165 | Nc1cc(N2C(=O)C3=C(CCCC3)C2=O)c(F)cc1Cl
159 | O=[N+]([O-])c1cc(Cl)c(O)cc1OCCO
76 to 78.5 | N#CCCCCN1C(=NCCCn2ccnc2)c2cccc3cccc1c23
148 to 150 | CC1=C(c2ccncc2)CC(C)C(=O)N1 (configuration not stated)
196 to 199 | CCCCCC(C)C(C)c1cc(O)cc(OC(NC(C)=O)c2ccccc2)c1 (configuration not stated)
132 to 134 | CC(Br)c1ccc(-c2ccc(C(=O)c3ccccc3)cc2)cc1 (configuration not stated)
115 to 116 | CN(CCN=C(NC#N)NCCSCc1csc(NC(=N)N)n1)CCC(c1ccccc1)c1ccccn1 (configuration not stated)
62 to 63 | C[Si](C)(C)NS(=O)(=O)c1ccccc1
248 to 249 | COc1ccc(-c2c(/C=C/C(=O)O)ccc3cc(OC)ccc23)cc1
265 to 268 | COc1ccc(C(=O)Nc2ccc(C(=O)Nc3ccccc3)cc2)cc1C12CC3CC(CC(C3)C1)C2

melting point [°C] | Compound
139 to 140 | O=S(=O)(NCC1CCN(C[C@H]2COc3ccc(C(F)(F)F)cc3O2)CC1)c1cccc(Cl)c1Cl
172 to 174 | CNC(=O)Nc1cc(CC(C)C)ccc1-c1ccccc1S(=O)(=O)Nc1onc(C)c1C
142 to 143 | O=S(=O)(Cc1ccccc1)c1ncc(Br)cn1
119 to 121 | CC(C)(CCl)C(=O)N(O)Cc1ccccc1Br
81 to 82 | O=C(c1ccc(N2CCOCC2)cc1O)C(F)(F)F
209 to 214 | Cc1nnccc1-c1c(-c2ccccc2)nn2ccccc12
178 to 179 | CCc1nsc(NC(=O)C(C)c2ccc3oc(-c4c(F)cccc4Cl)nc3c2)c1Cl (configuration not stated)
35 to 40 | Nc1nc2c(s1)CCN(CC=Cc1cccc(OCc3ccccn3)c1)CC2
203 to 206 | Cc1cn(C2CCCCC2)c(=O)nc1NS(=O)(=O)c1ccc(N)cc1
78.6 to 79.9 | CCN(CC)C(=O)c1ccc[nH]1
144 to 146 | CC(=O)Nc1nc2ccc(S(=O)(=O)n3c(COC(C)(C)C(=O)O)cc4cc(C(F)(F)F)ccc43)cc2s1
> 260 | Cc1cccc(NC(=O)NCc2cccc3c2C(=O)N(C2CCC(=O)NC2=O)C3=O)c1 (configuration not stated)
212 to 214 | O=C1NC(=S)SC1=Cc1cccc(OCc2ccc(C(=O)c3ccccc3)cc2)c1
277 to 278 | Cc1ccc(C(=O)O)cc1Nc1nccc(-c2cccnc2)n1
120 to 123 | Cc1c(-c2cn(C)c(=O)c(Nc3ccc(C4C(=O)N(C)CCN4C(=O)OC(C)(C)C)cc3)n2)cccc1N1Cc2cc(C(C)(C)C)sc2C1=O (configuration not stated)
89 to 92 | CCCCCCCCc1cccc(CCC(N)(CO)CO)c1
110 | Cc1c(N)cccc1OC[C@@H]1CCCN1C(=O)OC(C)(C)C
158 to 160 | Cc1nc2c(O[C@@H]3c4ccccc4C[C@H]3OS(C)(=O)=O)cccn2c1C=O (relative stereo)
169 to 171 | CCOC(=O)Cc1csc2nc(C(=O)NCc3cccc(OC)c3)[nH]c(=O)c12
147 to 149 | NC(=O)N(O)Cc1ccc(OCc2ccccc2)cc1
> 300 | Nc1ccc2c(c1)CN(c1c(F)cc3c(=O)c(C(=O)O)cn(-c4ccc(F)cc4F)c3c1F)C2

Compound | melting point [°C]
CC12CCC3C(CCC4(O)CC(O)CCC34CO)C1(O)CCC2c1ccnnc1 (configuration not stated) | 138 to 140
O=[N+]([O-])C(CO)(CO)c1cc(Br)cnc1Cl | 162 to 163
CCCc1c(C(=O)C(C)C)c2ccc(C(N)=O)cc2n1Cc1ccc(Cl)cc1 | 183 to 184
CN(C)C(C(=O)C1CCCCC1)C1(c2ccc(Cl)c(Cl)c2)CCC1 (configuration not stated) | 79 to 80

Reference: a melting point compilation (Tetko et al.; mined from patent text by program, amines drawn as free bases though some values may be those of a salt)
